This note sets out measurements from patent publication US11332472B2, “Substituted piperidines as inhibitors of ubiquitin specific protease 7” (LES LABORATOIRES SERVIER, priority 2017, dated 2022).

For orientation: IC50 means the concentration needed to halve the response being measured. Higher therefore signals lower potency.

The test deals with T1, USP7 (Homo sapiens, UniProt Q93009, C315A).
T1 construct: 0.25 nM His-His-USP7 (aa208-560, [C315A]) was incubated with compound; His-His (N)
T1 sequence (Q93009 208-560 C315A): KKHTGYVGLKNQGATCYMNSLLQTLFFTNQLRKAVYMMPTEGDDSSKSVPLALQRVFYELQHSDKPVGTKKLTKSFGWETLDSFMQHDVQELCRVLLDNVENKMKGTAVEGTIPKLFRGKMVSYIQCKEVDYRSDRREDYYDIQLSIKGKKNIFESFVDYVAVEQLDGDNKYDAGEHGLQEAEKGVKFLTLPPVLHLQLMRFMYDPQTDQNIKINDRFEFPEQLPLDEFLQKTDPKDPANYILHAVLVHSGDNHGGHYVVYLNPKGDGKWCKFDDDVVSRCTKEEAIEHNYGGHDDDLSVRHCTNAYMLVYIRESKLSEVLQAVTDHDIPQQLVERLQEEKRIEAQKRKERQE
Briefly: Inhibition of USP7 by Fluorescence Intensity (FLINT) readings, Ubiquitin-Rhodamine-110 substrate. Type of test: biochemical. To be noted: 0.25 nM His-His-USP7 (aa208-560, [C315A]); compound 60 minutes at 30° C.; 500 nM Ubiquitin-Rhodamine substrate; 11-point curves. How it is done: USP7 activity was measured using Rhodamine-110 c-terminal labelled Ubiquitin as a substrate (Viva Biosciences). Incubation with USP7 results in the release of Rhodamine-110 leading to an increase in fluorescence which can be used in the continuous measurement of USP7 activity.
The USP7 reactions were performed in a 50 μL volume, in 384 well black solid low binding plates (Corning #3575). The reaction buffer consisted of 100 mM Bicine pH 8.0, 0.01% TritonX 100, 1 mM TCEP, and 10% DMSO.
0.25 nM His-His-USP7 (aa208-560, [C315A]) was incubated with compound (final concentration 10% DMSO) for 60 minutes at 30° C. The reaction was then initiated by the addition of 500 nM Ubiquitin-Rhodamine-10 substrate and the plate read every 3 minutes for 21 minutes to measure the release of Rhodamine-110. Fluorescence Intensity (FLINT) readings were measured using a Biomek Neo plate reader (Ex. 485 nm. Em. 535 nm).
The inhibition of increasing doses of compound was expressed as a percentage reduction in kinetic rate compared to the kinetic rates established between ‘DMSO only’ and ‘total inhibition’ controls (no USP7). The inhibitory concentrations that gave a 50% reduction in kinetic rate (IC50) were determined, from 11-point dose response curves, in XL-Fit using a 4-Parameter Logistic Model (Sigmoidal Dose-Response Model).
With `O=C([C@@H]1CCCC[C@H]1c1ccoc1)N1CCC(O)(Cn2cnc3cccnc3c2=O)CC1` (relative stereo) [Example 4, 3-[[1-[trans-2-(3-furyl)cyclohexanecarbonyl]-4-hydroxy-4-piperidyl]methyl]pyrido[3,2-d]pyrimidin-4-one], the midpoint of inhibition, the IC50, lay at 4580 nM.
With `COc1ccc(-n2ccc3c(=O)n(CC4(O)CCN(C(=O)[C@@H]5CCCC[C@H]5c5ccc(F)cc5)CC4)cnc32)cc1` (single isomer, unassigned) [Example 40, 3-[[1-[trans-2-(4-fluorophenyl)cyclohexanecarbonyl]-4-hydroxy-4-piperidyl]methyl]-7-(4-methoxyphenyl)pyrrolo[2,3-d]pyrimidin-4-one] the figure was 883 nM.
As for `Cn1ccc2c(=O)n(CC3(O)CCN(C(=O)[C@@H]4CCCC[C@H]4c4ccoc4)CC3)cnc21` (relative stereo) [Example 3, 3-[[1-[trans-2-(3-furyl)cyclohexanecarbonyl]-4-hydroxy-4-piperidyl]methyl]-7-methyl-pyrrolo[2,3-d]pyrimidin-4-one], the figure is 530 nM; as for `O=C([C@@H]1CCC(F)(F)C[C@H]1c1ccccc1)N1CCC(O)(Cn2cnc3c(ccn3-c3ccccc3)c2=O)CC1` (single isomer, unassigned) [Example 35, 3-[[1-[trans-4,4-difluoro-2-phenyl-cyclohexanecarbonyl]-4-hydroxy-4-piperidyl]methyl]-7-phenyl-pyrrolo[2,3-d]pyrimidin-4-one], 13500 nM; as for `O=C(Nc1ccc2ncn(CC3(O)CCN(C(=O)[C@@H]4CCCC[C@H]4c4ccccc4)CC3)c(=O)c2n1)C1CCCC1O` (relative stereo) [Example 103, 2-hydroxy-N-[3-[[4-hydroxy-1-(trans-2-phenylcyclohexanecarbonyl)-4-piperidyl]methyl]4-oxo-pyrido[3,2-d]pyrimidin-6-yl]cyclopentanecarboxamide], 125 nM.
As for `O=C([C@@H]1CCC(F)(F)C[C@H]1c1ccncc1)N1CCC(O)(Cn2cnc3c(-c4ccccc4)scc3c2=O)CC1` (relative stereo) [Example 84, 3-[[1-[trans-4,4-difluoro-2-(4-pyridyl)cyclohexanecarbonyl]-4-hydroxy-4-piperidyl]methyl]-7-phenyl-thieno[3,4-d]pyrimidin-4-one], the figure is 611 nM; as for `O=C([C@@H]1CCCC[C@H]1n1cccc1)N1CCC(O)(Cn2cnc3c(ccn3-c3ccccc3)c2=O)CC1` (single isomer, unassigned) [Example 13, 3-[[4-hydroxy-1-[trans-2-pyrrol-1-ylcyclohexanecarbonyl]-4-piperidyl]methyl]-7-phenyl-pyrrolo[2,3-d]pyrimidin-4-one], 11100 nM.
Take `O=C([C@@H]1CCCC[C@H]1n1ccnc1)N1CCC(O)(Cn2cnc3c(ccn3-c3ccccc3)c2=O)CC1` (single isomer, unassigned) [Example 50, 3-[[4-hydroxy-1-[trans-2-imidazol-1-ylcyclohexanecarbonyl]-4-piperidyl]methyl]-7-phenyl-pyrrolo[2,3-d]pyrimidin-4-one]: the IC50 was 570 nM.
With `O=C([C@@H]1OCCO[C@@H]1c1ccccc1)N1CCC(O)(Cn2cnc3c(ccn3-c3ccccc3)c2=O)CC1` (single isomer, unassigned) [Example 5, 3-[[4-hydroxy-1-[cis-3-phenyl-1,4-dioxane-2-carbonyl]-4-piperidyl]methyl]-7-phenyl-pyrrolo[2,3-d]pyrimidin-4-one] the figure was 19400 nM.
With `O=C([C@@H]1CCC(F)(F)C[C@H]1c1cnco1)N1CCC(O)(Cn2cnc3c(Cl)scc3c2=O)CC1` (relative stereo) [Example 76, 7-chloro-3-[[1-[trans-4,4-difluoro-2-oxazol-5-yl-cyclohexanecarbonyl]-4-hydroxy-4-piperidyl]methyl]thieno[3,4-d]pyrimidin-4-one] the figure was 6640 nM.
